The record followed here is US20250215010A1, “DIAZABICYCLOOCTANE DERIVATIVES USEFUL AS MATRIX METALLOPROTEINASE INHIBITORS” (VASA THERAPEUTICS SPOLKA Z OGRANICZONA ODPOWIEDZIALNOSCIA, priority 2022, published 2025).

Assay type in all cases: biochemical
One assay has as its target T1, MMP1 (Homo sapiens, UniProt P03956).
T1 sequence (P03956 100-269 limits assumed): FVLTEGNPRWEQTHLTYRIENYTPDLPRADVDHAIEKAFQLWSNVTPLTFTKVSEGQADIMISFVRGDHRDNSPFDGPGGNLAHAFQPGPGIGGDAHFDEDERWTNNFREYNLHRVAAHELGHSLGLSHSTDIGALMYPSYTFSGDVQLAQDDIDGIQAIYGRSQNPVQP
In words: MMP-1 colorimetric inhibition assay (Enzo kit BML-AK404). The following applies: thiopeptide substrate, absorbance 415 nm; read-out: MMP 1 IC50 class. The procedure, abridged: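 Colorimetric kit run per manufacturer protocol. MMP-1 cleaves a thiopeptide substrate (Ac-PLG-[2-mercapto-4-methylpentanoyl]-LG-OC2H5); released thiol reacts with DTNB, monitored at 415 nm. IC50 (nM) from inhibition curves of normalized values.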

In another assay the target is T2, MMP2 (Homo sapiens, UniProt P08253).
T2 sequence (P08253 110-660): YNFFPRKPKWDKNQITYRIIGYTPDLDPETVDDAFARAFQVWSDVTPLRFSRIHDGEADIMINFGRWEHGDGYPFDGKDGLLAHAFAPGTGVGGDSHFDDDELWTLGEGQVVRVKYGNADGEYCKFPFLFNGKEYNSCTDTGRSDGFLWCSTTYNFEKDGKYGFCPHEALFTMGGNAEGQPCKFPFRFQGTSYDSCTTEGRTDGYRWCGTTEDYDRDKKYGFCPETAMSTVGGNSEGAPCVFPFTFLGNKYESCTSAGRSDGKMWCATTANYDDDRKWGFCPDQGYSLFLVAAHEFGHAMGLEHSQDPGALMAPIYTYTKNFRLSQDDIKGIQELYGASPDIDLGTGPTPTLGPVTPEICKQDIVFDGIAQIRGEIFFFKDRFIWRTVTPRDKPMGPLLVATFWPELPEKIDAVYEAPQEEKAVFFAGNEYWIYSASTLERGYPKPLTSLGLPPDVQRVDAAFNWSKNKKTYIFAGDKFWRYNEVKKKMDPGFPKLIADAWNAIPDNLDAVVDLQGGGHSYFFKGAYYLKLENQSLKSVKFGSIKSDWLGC
In words: MMP-2 colorimetric inhibition assay (Enzo kit BML-AK408). The following applies: thiopeptide substrate, absorbance 415 nm; read-out: MMP 2 IC50 class. The procedure, abridged: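 Cleavage of the thiopeptide Ac-PLG-[2-mercapto-4-methylpentanoyl]-LG-OC2H5 releases a sulfhydryl that reacts with DTNB, read at 415 nm per the kit protocol. IC50 values (nM) come from inhibition curves of normalized data.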

For the next assay, the target named is MMP9 (Homo sapiens, UniProt P14780). Kind of assay: MMP-9 colorimetric inhibition assay (Enzo kit BML-AK410). Particulars: thiopeptide substrate, absorbance 415 nm; read-out: MMP 9 IC50 class. The procedure, abridged: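 Colorimetric thioester-substrate assay: hydrolysis of Ac-PLG-[2-mercapto-4-methylpentanoyl]-LG-OC2H5 frees a thiol that reacts with DTNB, read at 415 nm. Run per kit protocol. IC50 (nM) taken from inhibition curves of normalized values.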

Another assay deals with T3, MMP13 (Homo sapiens, UniProt P45452).
T3 construct: purchased Enzo Life Sciences, Inc. BML-AK412
Kind of assay: MMP-13 colorimetric inhibition assay (Enzo kit BML-AK412). The procedure, abridged: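 Thiopeptide chromogenic substrate (Ac-PLG-[2-mercapto-4-methylpentanoyl]-LG-OC2H5); MMP-13 hydrolysis of the thioester yields a thiol that reacts with DTNB, read at 415 nm. IC50 values (nM) derived from inhibition curves of normalized data.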

The target in another assay is ADAM17 (TACE) (Homo sapiens, UniProt P78536). In words: TACE fluorometric inhibition assay (Enzo kit BML-AK310). Particulars: quenched fluorogenic peptide, ex/em 320/420 nm; read-out: TACE IC50 class. The procedure, abridged: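 Kit-based TACE assay run per manufacturer's protocol, using quenched fluorogenic peptide Mca-PLAQAV-Dpa-RSSSR-NH2 whose cleavage raises Mca fluorescence. Signal read at ex/em 320/420 nm; IC50 (nM) derived from inhibition curves of normalized values.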

The next assay deals with T4, ADAM10 (Homo sapiens, UniProt O14672).
T4 construct: purchased AnaSpec, Inc. AS-72226
T4 sequence (O14672 214-748): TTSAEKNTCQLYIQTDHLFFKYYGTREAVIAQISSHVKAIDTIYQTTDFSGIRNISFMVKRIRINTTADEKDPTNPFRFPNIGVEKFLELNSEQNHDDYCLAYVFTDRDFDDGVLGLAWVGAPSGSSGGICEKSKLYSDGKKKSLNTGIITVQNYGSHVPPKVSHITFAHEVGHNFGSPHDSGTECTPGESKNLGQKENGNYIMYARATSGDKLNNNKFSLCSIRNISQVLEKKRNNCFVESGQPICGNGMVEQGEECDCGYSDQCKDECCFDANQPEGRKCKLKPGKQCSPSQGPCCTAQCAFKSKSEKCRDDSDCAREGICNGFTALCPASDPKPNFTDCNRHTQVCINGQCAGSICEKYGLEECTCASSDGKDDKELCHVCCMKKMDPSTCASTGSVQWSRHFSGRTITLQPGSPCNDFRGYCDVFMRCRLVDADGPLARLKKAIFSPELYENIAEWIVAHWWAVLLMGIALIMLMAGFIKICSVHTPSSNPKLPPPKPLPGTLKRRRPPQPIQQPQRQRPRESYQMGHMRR
Kind of assay: SensoLyte 520 ADAM10 fluorometric activity assay (AnaSpec AS-72226). The procedure, abridged: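 ADAM10 activity was read by cleavage of a FRET peptide substrate (5-FAM/QXL 520), run per the kit protocol, with fluorescence at 495/520 nm. IC50 values (nM) came from inhibition curves of normalized data.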

[1] abbreviates: thiopeptide substrate, absorbance 415 nm, read-out: MMP 13 IC50 class.
Where [2] appears, read: FRET peptide substrate, ex/em 495/520 nm, read-out: ADAM 10 IC50 class.

Each structure is given as a SMILES string. Read-outs that look alike come from different tables or passages of the source.

MMP9, sequence (P14780 94-707): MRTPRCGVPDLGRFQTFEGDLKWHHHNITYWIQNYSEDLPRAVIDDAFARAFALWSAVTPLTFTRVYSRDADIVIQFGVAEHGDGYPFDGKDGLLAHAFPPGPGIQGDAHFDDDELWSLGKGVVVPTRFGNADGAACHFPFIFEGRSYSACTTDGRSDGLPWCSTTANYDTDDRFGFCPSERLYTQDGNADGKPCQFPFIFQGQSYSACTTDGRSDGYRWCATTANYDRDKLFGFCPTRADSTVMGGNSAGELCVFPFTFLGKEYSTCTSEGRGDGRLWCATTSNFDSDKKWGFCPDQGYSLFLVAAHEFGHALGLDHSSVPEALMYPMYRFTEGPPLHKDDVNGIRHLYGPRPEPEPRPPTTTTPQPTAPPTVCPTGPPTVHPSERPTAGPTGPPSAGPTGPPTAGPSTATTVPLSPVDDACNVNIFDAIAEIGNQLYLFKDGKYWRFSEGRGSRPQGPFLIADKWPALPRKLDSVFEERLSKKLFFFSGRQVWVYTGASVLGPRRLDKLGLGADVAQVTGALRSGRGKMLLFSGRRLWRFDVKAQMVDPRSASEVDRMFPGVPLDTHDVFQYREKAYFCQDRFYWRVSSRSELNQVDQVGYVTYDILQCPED
ADAM17 (TACE), sequence (P78536 215-477 limits assumed): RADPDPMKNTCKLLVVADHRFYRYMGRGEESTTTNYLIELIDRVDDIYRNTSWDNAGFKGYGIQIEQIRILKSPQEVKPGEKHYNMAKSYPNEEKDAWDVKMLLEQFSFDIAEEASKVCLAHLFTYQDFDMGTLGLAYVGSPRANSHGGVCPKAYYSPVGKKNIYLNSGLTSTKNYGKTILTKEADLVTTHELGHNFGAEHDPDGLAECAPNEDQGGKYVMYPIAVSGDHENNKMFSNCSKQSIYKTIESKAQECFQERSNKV

Turning to `COCCOC(=O)N1[C@@H]2CC[C@H]1[C@H](C(=O)NO)N(S(=O)(=O)N1CCC(Oc3ccc(Cl)cc3)CC1)C2` [Example 44, (1S,2R,5R)-2-methoxyethyl 3-((4-(4-chlorophenoxy)piperidin-1-yl)sulfonyl)-2-(hydroxycarbamoyl)-3,8-diazabicyclo[3.2.1]octane-8-carboxylate], the IC50 at MMP1 was 50 to 1000 nM; on MMP2, less than 50 nM; on MMP9 it was less than 50 nM; on MMP13 (setting [1]), less than 50 nM; on ADAM17 (TACE), less than 50 nM; against ADAM10 it was 50 to 1000 nM.
As to `CCOc1ccc(Oc2ccc(S(=O)(=O)N3C[C@H]4CC[C@@H]([C@@H]3C(=O)NO)N4C(=O)OCCOC)cn2)cc1` [Example 29, 2-methoxyethyl (1S,2R,5R)-3-((6-(4-ethoxyphenoxy)-pyridin-3-yl)-sulfonyl)-2-(hydroxycarbamoyl)-3,8-diazabicyclo-[3.2.1]octane-8-carboxylate], the IC50 on MMP1 is 50 to 1000 nM; at MMP2 it was less than 50 nM; on MMP9, less than 50 nM; at MMP13, less than 50 nM; at ADAM17 (TACE) it was 1000 to 10000 nM; on ADAM10 (setting [2]), greater than 10000 nM.
As for `COCCOC(=O)N1[C@@H]2CC[C@H]1[C@H](C(=O)NO)N(S(=O)(=O)c1ccc(Oc3ccc(OC)cc3)nc1)C2` [Example 18, 2-methoxyethyl (1S,2R,5R)-2-(hydroxycarbamoyl)-3-((6-(4-methoxy-phenoxy)pyridin-3-yl)sulfonyl)-3,8-diazabicyclo-[3.2.1]octane-8-carboxylate], the IC50 is 1000 to 10000 nM on MMP1; less than 50 nM at MMP2; less than 50 nM at MMP9; less than 50 nM on MMP13 (setting [1]); 1000 to 10000 nM on ADAM17 (TACE); 1000 to 10000 nM on ADAM10 (setting [2]).

What is called IC50 is the concentration that gives 50% inhibition.
